Laboratory results as given in patent publication US20210059964A1, “Anti-I-Type Allergy Agent, Degranulation Inhibitor for Basophils and Mast Cells, Anti-Dementia Agent, Agent for Improving/Inhibiting Short-Term Memory Impairment” (Mitsui Sugar Co., Ltd., priority 2018, published 2021).

What was measured:
[1] = test system: RBL-2H3 cells; experiment: RBL-2H3 cell degranulation inhibition test; type: cell-based, rat; settings: untreated control = 100
Experimental: Whether or not an anti-I-type allergy agent has a degranulation inhibitory action can be confirmed through the following method. For example, cells, such as rat basophilic leukemia cells (RBL-2H3 cells), which extracellularly release […] containing histamine through cross-linking of IgE bound on a cell surface due to an antigen are used. The extent to which the degranulation of a specimen to which an anti-I-type allergy agent is added is inhibited when these cells are stimulated by the antigen is calculated compared to a specimen to which no anti-I-type allergy agent is added. RBL-2H3 cells, which were rat basophilic leukemia cells, (National Institutes of Biomedical Innovation, Health and Nutrition) were seeded in a 96-well plate and were then cultured overnight. […] Then, the cells were washed with the buffer solutions. Furthermore, the prepared 1,000, 500, and 250 μg/mL test solutions were added thereto so that the final concentrations became 500 μg/mL (Example 1), 250 μg/mL (Example 2), and 125 μg/mL (Example 3), respectively. Thereafter, the mixtures were allowed to react at 37° C. for 10 minutes. Then, DNP-labeled human serum albumin was added thereto, and the mixtures were further allowed to react at 37° C. for 3 hours. […] For each sample of Examples 1 to 3, Comparative Example 1, a positive control, an antigen-unstimulated control, and sample blanks, the absorbance of p-nitrophenol generated by reaction between a substrate and β-hexosaminidase present in granules was measured (at a measurement wavelength of 405 nm and a control wavelength of 650 nm) using a microplate reader (SpectraMax M2e, Molecular Devices, LLC.) The emission rate was obtained using the following equation from the absorbance of each sample with respect to the absorbance of Comparative Example 1, and each degranulation rate was calculated from the emission rate. In the equation, “absorbance on cell supernatant” and “absorbance on cell solution side” are values obtained by subtracting the sample blanks. Emission rate (%)=absorbance on cell supernatant side/(absorbance on cell supernatant side+absorbance on cell solution side) Degranulation rate (%)={average value of (emission rate of test solution−emission rate of antigen-unstimulated control)/(emission rate of untreated control−emission rate of antigen-unstimulated control)}×100

[2] = test system: short-term memory impairment caused by accumulation of amyloid β proteins; experiment: Y-shaped maze test in mice injected with amyloid β; type: in vivo; settings: 100 mg/kg oral once a day
Experimental: p-Coumaric acid (trans-p-coumaric acid, Tokyo Chemical Industry Co., Ltd.) was stored at room temperature (control temperature: 18.0° C. to 28.0° C.) until it was used in a test. Injection water (Otsuka distilled water, Otsuka Pharmaceutical Factory, Inc.) was prepared as a medium in which p-coumaric acid was to be dissolved. The required amount of p-coumaric acid was weighed out and dissolved in the injection water. Then, the dissolved p-coumaric acid was diluted to a predetermined concentration to obtain a test solution.
Amyloid β (Amyloid-β Protein (25-35, Polypeptide Laboratories) to be used in an amyloid β solution was stored in a freezer (control temperature: −30° C. to −20° C.) until it was to be used in a test. Amyloid β was dissolved in injection water to 2 mM to prepare an amyloid β solution.
Male Slc:ddY mice (SPF, Japan SLC, Inc.) were used as test animals 5-week-old mice were obtained as the mice. Mice are animal species generally used in behavioral pharmacology tests, and maintenance of their strains is clear. The body weight range of the mice 1 day after the acquisition was 23.8 to 30.0 g.
Grouping was performed through a random sampling method on the start day of administration of a test solution so that the average body weight of each group was approximately uniform. As a group configuration, there were three groups: a pseudo-operation group, a medium control group, and a p-coumaric acid administration group. In the p-coumaric acid administration group, the amount of solution administered was calculated as 10 mL/kg based on the body weight on the administration day so that the amount of p-coumaric acid administered was 100 mg/kg per mouse. A 0.5% (w/v) methyl cellulose solution was administered to the pseudo-operation group and the medium control group at 10 mL/kg.
The start day of administration of a test solution was regarded as day 1 of administration, the test solution was administered once a day, and an amyloid β solution was injected into the mice on day 8 of the administration. Thereafter, a Y-shaped maze test was carried out on day 14 of the administration. Each procedure will be described below.
The administration route was oral administration. Regarding the administration method, a test solution was orally administered according to a usual method used in test facilities using a polypropylene disposable injection cylinder (TERUMO CORPORATION) equipped with a disposable oral sonde for mice (Fuchigami Kikai). At the time of the administration operation, the test solution was mixed by inversion every time it was administered to a mouse, and was then sucked into the injection cylinder. On the day of injection of an amyloid β solution, the test solution was administered after the injection of the amyloid β solution. […]

[3] = day 14, 8 minutes in maze, mean ± standard error

SMILES	degranulation rate ([1]; Wortmannin final concentration 25 nmol/L) [%]	degranulation rate ([1]; p-coumaric acid final concentration 125 μg/mL) [%]	degranulation rate ([1]; p-coumaric acid final concentration 250 μg/mL) [%]	degranulation rate ([1]; p-coumaric acid final concentration 500 μg/mL, anti-DNP-IgE sensitised, DNP-labeled human serum albumin stimulated) [%]	Spontaneous alternation behavior number [2, 3]	Spontaneous behavior alternation rate (%) [2, 3] [%]	Total entry number [2, 3]	spontaneous alternation behavior rate compared with medium control group ([2]; day 14, significant difference p<0.01)
COC[C@H]1OC(=O)c2coc3c2[C@@]1(C)C1=C(C3=O)[C@@H]2CCC(=O)[C@@]2(C)C[C@H]1OC(C)=O [Wortmannin, reference compound]	39±6.4	–	–	–	–	–	–	–
O=C(O)/C=C/c1ccc(O)cc1 [p-Coumaric acid]	–	78±8.1	46±8.0	12±3.0	21.3 ± 1.5	66.0 ± 1.4	34.2 ± 2.1	higher than that of the medium control group
